A short description of data set [1]: Evaluation of ionization potential of film by photoelectron spectrometer. Type of data set: physicochemical. The following applies: film spin-coated from chloroform on quartz substrate (α-6T: film deposited under vacuum); solid state. As for the experimental part: The ionization potential is preferably determined by the method of measuring a sample in a solid state through photoelectron spectroscopy. Examples of the simple devices include a photoelectron spectrometer, model AC-1 (or its successor device) available from Riken Keiki Co., Ltd.
The oligothiophene A (hexamer) (50 mg) prepared in Synthesis 4 was dissolved in chloroform (1 mL) to prepare a solution. This solution was spin-coated on a 2.5 by 2.5 cm^2 quartz substrate available from Furuuchi Chemical Corporation at 1000 rpm. A satisfactory film was produced. The ionization potential (Ip) of this film was determined with a photoelectron spectrometer Model PCR-101 available from Sumitomo Heavy Industries Advanced Machinery. As a reference, an α-6T film deposited on a quartz substrate under vacuum was used (See Comparative Example 1 described below). FIG. 4 is a graph of the ionization potentials observed. The ionization potential (Ip) of the oligothiophene A (hexamer) was 5.34 eV, while that of α-6T was 4.7 eV.

A short description of data set [2]: Evaluation of crystallinity of film by X-ray diffractometry. It counts as physicochemical. The following applies: for Crystallinity of Film: In-Plane X-ray diffractometry of film. As for the experimental part:
X-ray diffractometry was conducted for the oligothiophene film formed of the oligothiophene A (hexamer) prepared in [Evaluation of Ionization Potential] using a RINT-2000/PC available from Rigaku Corporation.

Data set [3] can be described thus: Evaluation of solubility in specific solvents at 30° C. Type of data set: physicochemical. The protocol:
The oligothiophene A (hexamer) was dissolved in each of toluene, xylene, ethylbenzene, mesitylene, cyclopentanone, cyclohexanone, methyl chloride, carbon tetrachloride, chlorobenzene, dichlorobenzene, trichlorobenzene, nitrobenzene, methyl ethyl ketone, benzoic acid esters, anisole, phenetole, butyl phenyl ether, methoxytoluene, and benzyl ethyl ether at 30° C., and each solubility was determined. […] In Table 1, the mark o indicates the case where the solubilities of 0.1% by weight and 0.3% by weight for each solvent were observed, and the mark X indicates the other case.

The conditions of data set [4]: usual value of representative thiophene materials; cited from earlier work.
Where [5] appears, read: 30° C., toluene, xylene, ethylbenzene, mesitylene, cyclopentanone, cyclohexanone and other listed solvents.

Like-named read-outs stand apart in the source and are kept apart here.

The values that follow come from patent US20090159876A1, “ORGANIC SEMICONDUCTOR MATERIAL AND ORGANIC FIELD EFFECT TRANSISTOR” (MITSUBISHI CHEMICAL CORPORATION, priority 2005, published 2009).

Take `CCCCCCc1ccc(-c2ccc(-c3ccc(-c4ccc(-c5ccc(-c6sc(-c7cc(-c8ccc(CC)cc8)c(-c8ccc(-c9ccc(-c%10ccc(-c%11ccc(-c%12ccc(CCCCCC)s%12)s%11)s%10)s9)s8)s7)cc6-c6ccc(CC)cc6)s5)s4)s3)s2)s1` [Example 6]: the “Ionization Potential” value in data set [1] is 5.18 eV. Also, in data set [2], the “Crystallinity of Film” value is “◯”. Moreover, in data set [3] (setting [5]), the “Solubility in Specific Solvents 0.1% by weight” value is on record as “◯” and the “Solubility in Specific Solvents 0.3% by weight” value is “◯”.

For `CCCCCCc1ccc(-c2ccc(-c3ccc(-c4ccc(-c5sc(-c6cc(-c7ccc(CC)cc7)c(-c7ccc(-c8ccc(-c9ccc(-c%10ccc(CCCCCC)s%10)s9)s8)s7)s6)cc5-c5ccc(CC)cc5)s4)s3)s2)s1` [Example 3], in data set [1], the “Ionization Potential” value came to 5.26 eV. For the same molecule, in data set [2], the “Crystallinity of Film” value is recorded as “◯”. Also, in data set [3], the “Solubility in Specific Solvents 0.1% by weight” value is “◯” and the “Solubility in Specific Solvents 0.3% by weight” value is listed as “◯”.

As for `CCCCCCc1ccc(-c2ccc(-c3sc(-c4cc(-c5ccc(CC)cc5)c(-c5ccc(-c6ccc(CCCCCC)s6)s5)s4)cc3-c3ccc(CC)cc3)s2)s1` [Example 1], the “Ionization Potential” value in data set [1] stood at 5.34 eV. For the same molecule, in data set [2], the “Crystallinity of Film” value is “◯”. In addition, in data set [2] (In-Plane X-ray diffractometry of spin-coated film), the “Crystallinity of film (in words)” value is on record as “crystalline semiconductor layer”. Besides, in data set [3] (setting [5]), the “Solubility in Specific Solvents 0.1% by weight” value was “◯” and the “Solubility in Specific Solvents 0.3% by weight” value is on record as “◯”.

Regarding `CCCCCCc1ccc(-c2cc(-c3ccc(CC)cc3)c(-c3ccc(-c4ccc(-c5ccc(-c6sc(-c7cc(-c8ccc(CC)cc8)c(-c8ccc(-c9ccc(-c%10ccc(-c%11sc(-c%12ccc(CCCCCC)s%12)cc%11-c%11ccc(CC)cc%11)s%10)s9)s8)s7)cc6-c6ccc(CC)cc6)s5)s4)s3)s2)s1` [Example 7], the “Ionization Potential” value in data set [1] was found to be 5.46 eV. Further, in data set [2], the “Crystallinity of Film” value is “◯”. In data set [3], the “Solubility in Specific Solvents 0.1% by weight” value is on record as “◯” and the “Solubility in Specific Solvents 0.3% by weight” value is listed as “◯”.

Turning to `CCCCCCc1ccc(-c2ccc(-c3ccc(-c4ccc(-c5sc(-c6ccc(CCCCCC)s6)cc5-c5ccc(CC)cc5)s4)s3)s2)s1` [Example 5], the “Ionization Potential” value in data set [1] came to 5.24 eV. The “Crystallinity of Film” value in data set [2] is “◯”. For the same molecule, in data set [3], the “Solubility in Specific Solvents 0.1% by weight” value is given as “◯” and the “Solubility in Specific Solvents 0.3% by weight” value was “◯”.

On to `CCCCCCc1ccc(-c2ccc(-c3ccc(-c4sc(-c5cc(-c6ccc(CC)cc6)c(-c6ccc(-c7ccc(-c8ccc(CCCCCC)s8)s7)s6)s5)cc4-c4ccc(CC)cc4)s3)s2)s1` [Example 2], for which the “Ionization Potential” value in data set [1] worked out at 5.24 eV. In addition, in data set [2], the “Crystallinity of Film” value is recorded as “◯”. In data set [3], the “Solubility in Specific Solvents 0.1% by weight” value was “◯” and the “Solubility in Specific Solvents 0.3% by weight” value is listed as “◯”.

Take `c1csc(-c2ccc(-c3ccc(-c4ccc(-c5ccc(-c6cccs6)s5)s4)s3)s2)c1` [α-6T, α-sezithiophene, reference compound]: the “Ionization Potential” value in data set [1] is 4.7 eV. In addition, in data set [2], the “Crystallinity of Film” value is reported as “◯”. In data set [3], the “Solubility in Specific Solvents 0.1% by weight” value is given as “◯” and the “Solubility in Specific Solvents 0.3% by weight” value is on record as “◯”. Besides, the “ionization potential (Ip)” value in data set [4] was “about 4.7 eV”.
